From ChEMBL document CHEMBL1781967, “1-[4-(N-Benzylamino)phenyl]-3-phenylurea derivatives as a new class of hypoxia-inducible factor-1alpha inhibitors” (Bioorg Med Chem Lett, 2009)
Active and inactive are the calls of the source. The rule behind the calls is not given here.

How the values were obtained:
[1] = biological target: T1, Hypoxia-inducible factor 1-alpha (Homo sapiens, UniProt Q16665); assay: Inhibition of hypoxia-induced HIF1alpha transcriptional activity in HEK293 cells incubated for 16 hrs by hypoxia response element-driven luciferase reporter gene assay; type: cell-based
Target sequence in this assay (Q16665 whole entry): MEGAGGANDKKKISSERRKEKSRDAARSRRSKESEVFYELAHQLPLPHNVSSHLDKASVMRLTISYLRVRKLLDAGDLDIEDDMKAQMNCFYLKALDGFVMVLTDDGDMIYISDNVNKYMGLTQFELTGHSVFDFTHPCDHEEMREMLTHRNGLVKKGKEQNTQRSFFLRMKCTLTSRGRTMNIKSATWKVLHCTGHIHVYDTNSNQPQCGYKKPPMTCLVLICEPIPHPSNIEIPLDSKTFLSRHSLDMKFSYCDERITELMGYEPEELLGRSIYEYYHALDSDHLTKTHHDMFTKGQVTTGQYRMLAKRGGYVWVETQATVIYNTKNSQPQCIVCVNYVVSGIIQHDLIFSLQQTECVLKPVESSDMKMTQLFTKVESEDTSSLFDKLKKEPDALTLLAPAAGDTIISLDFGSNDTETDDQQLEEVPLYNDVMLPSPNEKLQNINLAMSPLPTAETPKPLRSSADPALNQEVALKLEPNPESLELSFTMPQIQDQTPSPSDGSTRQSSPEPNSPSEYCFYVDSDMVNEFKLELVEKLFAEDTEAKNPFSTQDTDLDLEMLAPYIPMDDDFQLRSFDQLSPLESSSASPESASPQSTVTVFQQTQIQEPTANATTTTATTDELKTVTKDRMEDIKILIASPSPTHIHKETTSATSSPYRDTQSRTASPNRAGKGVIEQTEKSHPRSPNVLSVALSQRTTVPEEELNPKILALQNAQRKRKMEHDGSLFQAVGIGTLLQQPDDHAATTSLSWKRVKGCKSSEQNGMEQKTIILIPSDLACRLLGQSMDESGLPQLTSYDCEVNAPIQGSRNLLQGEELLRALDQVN

HeLa [2] = assay: Effect on HIF1alpha mRNA expression in human HeLa cells incubated for 2 hrs under hypoxic conditions by RT-PCR; type: functional, cell-based
[3] = biological target: T1, Hypoxia-inducible factor 1-alpha; assay: Inhibition of HIF1alpha accumulation in human HeLa cells incubated for 4 hrs under hypoxic conditions by Western blot; type: cell-based
Target sequence in this assay (Q16665 whole entry, looked up): as the sequence (Q16665 whole entry) above

HeLa [4] = assay: Inhibition of hypoxia-induced VEGF secretion in human HeLa cells incubated for 12 hrs under hypoxic conditions by ELISA; type: functional, cell-based
HeLa [5] = assay: Effect on HIF1beta protein level in human HeLa cells incubated for 4 hrs under hypoxic conditions by Western blot

Molecule `COc1cccc(CNc2ccc(NC(=O)Nc3ccccc3)cc2)c1` has an IC50 [1] of 52.1 µM.
`COc1cccc(CNc2ccc(NC(=O)Nc3ccccc3)cc2)c1OC` showed an IC50 [1] of 8.62 µM.
Molecule `COc1ccc(OC)c(CNc2ccc(NC(=O)Nc3ccccc3)cc2)c1` has an IC50 [1] of 29.6 µM.
Work on `O=C(Nc1ccccc1)Nc1ccc(NCc2cccc(C(=O)O)c2)cc1` yielded an IC50 [1] of 41.6 µM.
`O=C(Nc1ccccc1)Nc1ccc(NCc2cccc(O)c2)cc1` was tested, and the IC50 [1] was 69.9 µM.
Molecule `COc1cc(CNc2ccc(NC(=O)Nc3ccccc3)cc2)cc(OC)c1` has an IC50 [1] of 18.7 µM.
`COc1ccc(CNc2ccc(NC(=O)Nc3ccccc3)cc2)cc1` gave an IC50 [1] of 23 µM.
Work on `COC(=O)c1cc(CNc2ccc(NC(=O)Nc3ccccc3)cc2)cc(C(=O)OC)c1` yielded an IC50 [1] of 15.1 µM.
In the case of `COc1cccc(OC)c1CNc1ccc(NC(=O)Nc2ccccc2)cc1`, the IC50 [1] is reported as 39.1 µM.
Molecule `O=C(Nc1ccccc1)Nc1ccc(NCc2ccccc2C(=O)O)cc1` has an IC50 [1] of 51.7 µM.
Work on `COC(=O)c1ccccc1CNc1ccc(NC(=O)Nc2ccccc2)cc1` yielded an IC50 [1] of 32.5 µM.
In the case of `O=C(Nc1ccccc1)Nc1ccc(NCc2ccccc2O)cc1`, the IC50 [1] is reported as 32.7 µM.
Work on `O=C(Nc1ccccc1)Nc1ccc(NCc2ccc(O)cc2)cc1` yielded an IC50 [1] of 35.5 µM.
In the case of `COC(=O)c1cccc(CNc2ccc(NC(=O)Nc3ccccc3)cc2)c1`, the Activity (HeLa [2]) is reported as “inactive”, the IC50 [1] is reported as 7.21 µM and the inhibition [3] is reported as “Dose-dependent effect”. For the same molecule, the IC50 (HeLa [4]) was 15 µM, the inhibition (HeLa [4]) was “Dose-dependent effect” and the Activity (HeLa [5]) was “inactive”.
Molecule `COc1ccccc1CNc1ccc(NC(=O)Nc2ccccc2)cc1` has an IC50 [1] of 17.4 µM.
`COC(=O)c1ccc(CNc2ccc(NC(=O)Nc3ccccc3)cc2)cc1` showed an IC50 [1] greater than 100 µM.
Molecule `COC(=O)c1ccc(OC)c(CNc2ccc(NC(=O)Nc3ccccc3)cc2)c1` has an IC50 [1] of 22.1 µM.
Molecule `O=C(Nc1ccccc1)Nc1ccc(NCc2ccc(C(=O)O)cc2)cc1` has an IC50 [1] greater than 100 µM.
